Results on 5 molecules are retold here after patent publication US8052961B2, “Highly fluorinated β-amino acids and methods of making and using same” (University of Utah Foundation, priority 2006, dated 2011).

By melting point is commonly meant the temperature of the solid-liquid transition. What is called logP is a log measure of how a compound divides between an organic and an aqueous phase.

Some results are limits rather than exact numbers.

Data set [1] is described as follows: 1-octanol/water partition coefficient (Poct) of tripeptides.
Procedure: The 1-octanol/water partition coefficients (Poct) of the two tripeptides were evaluated.
To 20 mg of peptide 4 or 5 were added 2 mL of water and 2 mL of 1-octanol. The resulting mixture was shaken with a mixer for 10 min. After the aqueous and the organic phases were fully separated, 50 μL of solution was taken out from each phase for HPLC analysis. To a mixture of 200 μL aqueous solution and 200 μL 1-octanol solution were added 1.8 mL of water and 1.8 mL of 1-octanol. The resulting mixture was shaken with a mixer for 10 min. After the phases were fully separated, 50 μL of solution was taken out from each phase for reversed-phases HPLC analysis.
The conditions of data set [2]: cited from earlier work.

For the molecule `NCC(COC(C(F)(F)F)(C(F)(F)F)C(F)(F)F)(COC(C(F)(F)F)(C(F)(F)F)C(F)(F)F)C(=O)O`, the melting point lay in the range of 182 to 184 °C.
Still for that read-out and setting: for `O=C(NCC(COC(C(F)(F)F)(C(F)(F)F)C(F)(F)F)(COC(C(F)(F)F)(C(F)(F)F)C(F)(F)F)C(=O)O)OCC1c2ccccc2-c2ccccc21` the value was 104 to 105 °C.
As for `NC(=O)CNC(=O)C(CNC(=O)CNC=O)(COC(C(F)(F)F)(C(F)(F)F)C(F)(F)F)COC(C(F)(F)F)(C(F)(F)F)C(F)(F)F` [tripeptide 4, Formyl-Gly-βFa-Gly-Amide], in data set [1], the logP at 10 min is more than 1.
Take octreotide: the “in vivo half-life (t1/2)” value in data set [2] was 2 h.
For the molecule `CC(C)(C)OC(=O)NCC(COC(C(F)(F)F)(C(F)(F)F)C(F)(F)F)(COC(C(F)(F)F)(C(F)(F)F)C(F)(F)F)C(=O)O`, the melting point was in the range of 128 to 130 °C.
